The structures appear in SMILES notation. “And” between values parts separate entries of the source, which are not always exact repeats. Equal values may be shown once.

This note sets out measurements from PMC7069944, “Amino acid levels determine metabolism and CYP450 function of hepatocytes and hepatoma cell lines” (Nature Communications, 2020).

In data set [1] the test system is CYP3A4. Briefly: qRT-PCR CYP3A4 expression in HepG2. It is filed as cell-based, human. Conditions: single amino acid supplementation, relative to CTL (CTL values equal HepG2 D7 CTL). Here is the method: AA supplementation was accomplished through the addition of MEM Non-Essential Amino Acids Solution (100 × ) and MEM Amino Acids Solution (50 × ) (Thermo Scientific) to the culture medium. For AA1, AA2, and AA3 medium, we added respectively 2 ml, 8 ml, and 16 ml of non-essential AA solution and 1 ml, 4 ml, and 8 ml of essential AA solution per 100 ml of LDM, with or without glucose. Culture medium was then made PH neutral through the addition of NaOH. […] PSC derived HLCs were differentiated in LDM until D12. AA supplementation (AA1, AA2 and AA3) was performed from day 12 until day 20, 30 or 40 of differentiation. […] HepG2, HUH7.5, Hep3B, HHL5, and HEK293 cells were maintained in DMEM supplemented with 10% fetal bovine serum as shown in Supplementary Table 4. AA supplementation consisted of addition of 16 ml of non-essential AA mix and 8 ml of essential AA mix per 100 ml of medium and a further addition of 20 g/l of any of the single AAs. […] PHHs were maintained in a medium composition that was based on WE as detailed in ref. [67].
RNA extraction was performed using the GenElute Mammalian Total RNA Miniprep Kit (Sigma-Aldrich). Then, genomic DNA was eliminated using the On-Column DNase I Digestion kit (Sigma-Aldrich). Last, 1 µg of RNA was transcribed to cDNA using the Superscript III First-Strand synthesis (Invitrogen). Gene expression analysis was performed using the Platinum SYBR green qPCR supermix-UDG kit (Invitrogen) in a ViiA 7 Real-Time PCR instrument (Thermo Scientific, Waltham, MA). The sequences of all used qRT-PCR primers are listed in Supplementary Table 6. Of these, ribosomal protein L19 (RPL19) was used as a housekeeping gene for normalization.

Data set [2] has as its system CYP3A4. Description: qRT-PCR CYP3A4 expression in HLCs. The conditions noted are these: HLCs in AA3 medium with or without 2% of the single amino acid or mix; Figure 4B. It is filed as cell-based, human. How it is done: AA supplementation was accomplished through the addition of MEM Non-Essential Amino Acids Solution (100 × ) and MEM Amino Acids Solution (50 × ) (Thermo Scientific) to the culture medium. For AA1, AA2, and AA3 medium, we added respectively 2 ml, 8 ml, and 16 ml of non-essential AA solution and 1 ml, 4 ml, and 8 ml of essential AA solution per 100 ml of LDM, with or without glucose. Culture medium was then made PH neutral through the addition of NaOH. […] PSC derived HLCs were differentiated in LDM until D12. AA supplementation (AA1, AA2 and AA3) was performed from day 12 until day 20, 30 or 40 of differentiation. […] HepG2, HUH7.5, Hep3B, HHL5, and HEK293 cells were maintained in DMEM supplemented with 10% fetal bovine serum as shown in Supplementary Table 4. AA supplementation consisted of addition of 16 ml of non-essential AA mix and 8 ml of essential AA mix per 100 ml of medium and a further addition of 20 g/l of any of the single AAs. Hepatoma cell lines were plated in normal culture medium, with addition of AA3 + 20 g/l AA once cells reached 60% confluency, and this for 3 or 7 additional days of culture. PHHs were maintained in a medium composition that was based on WE as detailed in ref. [67].
RNA extraction was performed using the GenElute Mammalian Total RNA Miniprep Kit (Sigma-Aldrich). Then, genomic DNA was eliminated using the On-Column DNase I Digestion kit (Sigma-Aldrich). […]

Turning to `CC(C)[C@H](N)C(=O)O` [VAL, valine], in the data set on CYP3A4 [1], the “Relative CYP3A4 expression” value was 39.34 and 55.9446 and 51.9815. For the same molecule, in the data set with CYP3A4 [2], the “relative CYP3A4 expression (compared to LDM 2% DMSO D20)” value is 50.8533 and 59.0748 and 76.4937.
